Converted amounts (≈) assume the structure as drawn.
Key:
Assay type in all cases: cell-based
E. cloacae ATCC13047 = assay: MIC by microbroth dilution (CLSI), strain No. 1; conditions: E. cloacae ATCC13047, AmpC, ceftazidime-resistant, cefepime-sensitive, cation-adjusted Mueller-Hinton broth; for MIC: Enterobacter cloacae, read-out: minimum inhibitory concentration (MIC), Strain No. 1
Experimental: (§1) The minimum inhibitory concentration (MIC) was measured by the microbroth dilution method in accordance with the procedures recommended by CLSI (Clinical and Laboratory Standards Institute) using 1×10^5 CFU/mL as an inoculum dose and a cation-adjusted Mueller-Hinton broth as a test medium.
(§2) The strains used are as described in the table below.

K. pneumoniae SR01358 = assay: MIC by microbroth dilution (CLSI), strain No. 2; conditions: Klebsiella pneumoniae; K. pneumoniae SR01358, KPC-2; KPC-producing strain; cation-adjusted Mueller-Hinton broth; read-out: minimum inhibitory concentration (MIC), Strain No. 2
Experimental: as §1, §2

K. pneumoniae SR01453 = assay: MIC by microbroth dilution (CLSI), strain No. 3; conditions: K. pneumoniae SR01453, NDM-1, MBL-producing strain, carbapenem-resistant, cation-adjusted Mueller-Hinton broth; for MIC: Klebsiella pneumoniae, read-out: minimum inhibitory concentration (MIC), Strain No. 3
Experimental: as §1, §2

K. pneumoniae NCTC13443 = assay: MIC by microbroth dilution (CLSI), strain No. 4; conditions: K. pneumoniae NCTC13443, NDM-1, MBL-producing strain, carbapenem-resistant, cation-adjusted Mueller-Hinton broth; for MIC: Klebsiella pneumoniae, read-out: minimum inhibitory concentration (MIC), Strain No. 4
Experimental: as §1, §2

E. cloacae SR36276 = assay: MIC by microbroth dilution (CLSI), strain No. 5; conditions: E. cloacae SR36276, AmpC, highly AmpC-producing strain, ceftazidime-resistant, cefepime-sensitive, cation-adjusted Mueller-Hinton broth; for MIC: Enterobacter cloacae, read-out: minimum inhibitory concentration (MIC), Strain No. 5
Experimental: as §1, §2

E. coli SR09613 = assay: MIC by microbroth dilution (CLSI), strain No. 6; conditions: for MIC: Escherichia coli, SR09613, read-out: minimum inhibitory concentration (MIC), Strain No. 6; for minimum inhibitory concentration (MIC), Strain No. 6: E. coli SR09613, CMY-2 type, plasmid AmpC-producing strain, ceftazidime-resistant, cefepime-sensitive, cation-adjusted Mueller-Hinton broth
Experimental: as §1, §2

| SMILES | MIC (E. cloacae ATCC13047) [µg/mL] | MIC (K. pneumoniae SR01358) [µg/mL] | MIC (K. pneumoniae SR01453) [µg/mL] | MIC (K. pneumoniae NCTC13443) [µg/mL] | MIC (E. cloacae SR36276) [µg/mL] | further results |
| --- | --- | --- | --- | --- | --- | --- |
| Nc1nc(/C(=N/OCC(=O)O)C(=O)N[C@@H]2C(=O)N3[C@@H]2[S@@+]([O-])C[C@@H]2CC(=O)O[C@@]23C(=O)O)cs1 [Compound I-001] | 0.125 (≈ 0.249 µM) | 0.25 (≈ 0.499 µM) | 0.063 (≈ 0.126 µM) | 1 (≈ 1.99 µM) | 0.063 (≈ 0.126 µM) |  |
| Nc1nc(/C(=N/OCC(=O)O)C(=O)N[C@@H]2C(=O)N3[C@@H]2S(=O)(=O)C[C@@H]2CC(=O)O[C@@]23C(=O)O)cs1 [Compound I-003] | 0.25 (≈ 0.483 µM) | 0.5 (≈ 0.966 µM) | 0.25 (≈ 0.483 µM) | 4 (≈ 7.73 µM) | 1 (≈ 1.93 µM) |  |
| C[C@H](O/N=C(\C(=O)N[C@@H]1C(=O)N2[C@@H]1[S@@+]([O-])C[C@@H]1CC(=O)O[C@@]12C(=O)O)c1csc(N)n1)C(=O)O [Compound I-005] | 0.5 (≈ 0.97 µM) | 0.5 (≈ 0.97 µM) | 0.125 (≈ 0.242 µM) | 1 (≈ 1.94 µM) | 0.125 (≈ 0.242 µM) |  |
| CC(C)(O/N=C(\C(=O)N[C@@H]1C(=O)N2[C@@H]1[S@@+]([O-])C[C@@H]1CC(=O)O[C@@]12C(=O)[O-])c1csc(N)n1)C(=O)[O-].[Na+].[Na+] [Compound I-007] | 0.25 | 0.5 | 0.5 | 2 | 0.25 |  |
| CC[C@H](O/N=C(\C(=O)N[C@@H]1C(=O)N2[C@@H]1[S@@+]([O-])C[C@@H]1CC(=O)O[C@@]12C(=O)O)c1csc(N)n1)C(=O)O [Compound I-009] | 0.5 (≈ 0.944 µM) |  | 0.5 (≈ 0.944 µM) | 4 (≈ 7.55 µM) | 0.25 (≈ 0.472 µM) |  |
| Nc1nc(/C(=N/OCCF)C(=O)N[C@@H]2C(=O)N3[C@@H]2[S@@+]([O-])C[C@@H]2CC(=O)O[C@@]23C(=O)O)cs1 [Compound I-010] | 0.25 (≈ 0.511 µM) |  | 0.25 (≈ 0.511 µM) | 8 (≈ 16.3 µM) | 1 (≈ 2.04 µM) |  |
| Nc1nc(/C(=N/OC2(C(=O)[O-])CC2)C(=O)N[C@@H]2C(=O)N3[C@@H]2[S@@+]([O-])C[C@@H]2CC(=O)O[C@@]23C(=O)[O-])cs1.[Na+].[Na+] [Compound I-015] | 0.125 | 0.5 | 0.125 | 1 | 0.125 |  |
| CCO/N=C(\C(=O)N[C@@H]1C(=O)N2[C@@H]1[S@@+]([O-])C[C@@H]1CC(=O)O[C@@]12C(=O)O)c1csc(N)n1 [Compound I-019] | 0.5 (≈ 1.06 µM) |  | 0.5 (≈ 1.06 µM) | 8 (≈ 17 µM) | 1 (≈ 2.12 µM) |  |
| CC(C)[C@H](O/N=C(\C(=O)N[C@@H]1C(=O)N2[C@@H]1[S@@+]([O-])C[C@@H]1CC(=O)O[C@@]12C(=O)O)c1csc(N)n1)C(=O)O [Compound I-022] |  |  | 1 (≈ 1.84 µM) |  | 0.5 (≈ 0.92 µM) |  |
| CO/N=C(\C(=O)N[C@@H]1C(=O)N2[C@@H]1[S@@+]([O-])C[C@@H]1CC(=O)O[C@@]12C(=O)[O-])c1csc(N)n1.[Na+] [Compound I-023] | 0.25 | 1 | 0.25 | 4 | 1 |  |
| Nc1nc(/C(=N/O)C(=O)N[C@@H]2C(=O)N3[C@@H]2[S@@+]([O-])C[C@@H]2CC(=O)O[C@@]23C(=O)O)cs1 [Compound I-024] |  |  | 2 (≈ 4.51 µM) |  | 4 (≈ 9.02 µM) |  |
| Nc1nc(/C(=N/O[C@H](CO)C(=O)O)C(=O)N[C@@H]2C(=O)N3[C@@H]2[S@@+]([O-])C[C@@H]2CC(=O)O[C@@]23C(=O)O)cs1 [Compound I-026] | 0.125 (≈ 0.235 µM) | 0.5 (≈ 0.941 µM) | 0.125 (≈ 0.235 µM) | 1 (≈ 1.88 µM) | 0.125 (≈ 0.235 µM) |  |
| Nc1nc(/C(=N/O[C@@H](CO)C(=O)O)C(=O)N[C@@H]2C(=O)N3[C@@H]2[S@@+]([O-])C[C@@H]2CC(=O)O[C@@]23C(=O)O)cs1 [Compound I-027] | 0.063 (≈ 0.119 µM) | 0.25 (≈ 0.47 µM) | 0.063 (≈ 0.119 µM) | 1 (≈ 1.88 µM) | ≤ 0.031 |  |
| Nc1nc(/C(=N/OCC(=O)O)C(=O)N[C@@H]2C(=O)N3[C@@H]2[SH](O)C[C@@H]2CC(=O)O[C@@]23C(=O)O)c(F)s1 (stereo partly drawn) [Compound I-036] |  |  |  |  |  | minimum inhibitory concentration (MIC), Strain No. 1 (E. cloacae ATCC13047): 0.5 µg/mL (≈ 0.959 µM); minimum inhibitory concentration (MIC), Strain No. 3 (K. pneumoniae SR01453): 1 µg/mL (≈ 1.92 µM); minimum inhibitory concentration (MIC), Strain No. 4 (K. pneumoniae NCTC13443): 8 µg/mL (≈ 15.3 µM); minimum inhibitory concentration (MIC), Strain No. 5 (E. cloacae SR36276): 1 µg/mL (≈ 1.92 µM) |
| Nc1nc(/C(=N/OC(F)C(=O)O)C(=O)N[C@@H]2C(=O)N3[C@@H]2[S@@+]([O-])C[C@@H]2CC(=O)O[C@@]23C(=O)O)cs1 (stereo partly drawn) [Compound I-037] | 0.5 (≈ 0.963 µM) | 1 (≈ 1.93 µM) | 0.25 (≈ 0.481 µM) | 8 (≈ 15.4 µM) | 0.5 (≈ 0.963 µM) |  |
| Nc1nc(/C(=N/OCc2ccncc2)C(=O)N[C@@H]2C(=O)N3[C@@H]2[S@@+]([O-])C[C@@H]2CC(=O)O[C@@]23C(=O)O)cs1 [Compound I-040] |  |  |  |  |  | MIC (E. coli SR09613): 4 µg/mL (≈ 7.48 µM) |
| C[n+]1cccc(CO/N=C(\C(=O)N[C@@H]2C(=O)N3[C@@H]2[S@@+]([O-])C[C@@H]2CC(=O)O[C@@]23C(=O)[O-])c2csc(N)n2)c1 [Compound I-043] |  |  | 2 (≈ 3.65 µM) |  |  | MIC (E. coli SR09613): 2 µg/mL (≈ 3.65 µM) |
| CC(CO)(CO)O/N=C(\C(=O)N[C@@H]1C(=O)N2[C@@H]1[S@@+]([O-])C[C@@H]1CC(=O)O[C@@]12C(=O)O)c1csc(N)n1 [Compound I-045] | 0.5 (≈ 0.941 µM) |  | 0.25 (≈ 0.47 µM) | 8 (≈ 15.1 µM) | 2 (≈ 3.76 µM) | MIC (E. coli SR09613): 0.25 µg/mL (≈ 0.47 µM) |
| Nc1nc(/C(=N/OCC(=O)O)C(=O)N[C@@H]2C(=O)N3[C@@H]2[S@@+]([O-])C[C@@H]2CC(=O)O[C@@]23c2nnn[nH]2)cs1 [Compound I-046] | 1 (≈ 1.9 µM) |  | 0.5 (≈ 0.952 µM) |  | 0.5 (≈ 0.952 µM) |  |
| CC(=O)NCCO/N=C(\C(=O)N[C@@H]1C(=O)N2[C@@H]1[S@@+]([O-])C[C@@H]1CC(=O)O[C@@]12C(=O)O)c1csc(N)n1 [Compound I-054] |  |  |  |  |  | minimum inhibitory concentration (MIC), Strain No. 1 (E. cloacae ATCC13047): 1 µg/mL (≈ 1.89 µM); minimum inhibitory concentration (MIC), Strain No. 3 (K. pneumoniae SR01453): 0.5 µg/mL (≈ 0.946 µM); minimum inhibitory concentration (MIC), Strain No. 5 (E. cloacae SR36276): 4 µg/mL (≈ 7.57 µM); minimum inhibitory concentration (MIC), Strain No. 6 (E. coli SR09613): 0.5 µg/mL (≈ 0.946 µM) |
| Nc1nc(/C(=N/OCCO)C(=O)N[C@@H]2C(=O)N3[C@@H]2[S@@+]([O-])C[C@@H]2CC(=O)O[C@@]23C(=O)[O-])cs1.[Na+] [Compound I-059] | 0.063 | 0.5 | 0.063 | 1 | 0.25 |  |
| NC(=O)CO/N=C(\C(=O)N[C@@H]1C(=O)N2[C@@H]1[S@@+]([O-])C[C@@H]1CC(=O)O[C@@]12C(=O)[O-])c1csc(N)n1.[Na+] [Compound I-060] | 0.125 | 0.5 | 0.125 | 4 | 0.5 |  |
| Nc1nc(/C(=N/OCc2cc(O)no2)C(=O)N[C@@H]2C(=O)N3[C@@H]2[S@H](O)C[C@@H]2CC(=O)O[C@@]23C(=O)[O-])cs1.[Na+] [Compound I-063] |  |  |  |  |  | minimum inhibitory concentration (MIC), Strain No. 6 (E. coli SR09613): 4 µg/mL |
| COC(=O)NCCO/N=C(\C(=O)N[C@@H]1C(=O)N2[C@@H]1[S@@+]([O-])C[C@@H]1CC(=O)O[C@@]12C(=O)[O-])c1csc(N)n1.[Na+] [Compound I-064] |  |  | 2 |  |  |  |
| CCO/N=C(\C(=O)N[C@@H]1C(=O)N2[C@@H]1S(=O)(=O)C[C@@H]1CC(=O)O[C@@]12C(=O)[O-])c1csc(N)n1.[Na+] [Compound I-071] | 2 |  | 1 | 8 | 4 |  |

Source: patent US20180186814A1, “TRICYCLIC COMPOUND HAVING SULFINYL OR SULFONYL” (Shionogi & Co., Ltd., priority 2015, published 2018)
